Results published in patent publication US7598234B2, “Steroid derived antibiotics” (Brigham Young University, priority 1998, dated 2009).

Columns and labels:
Type in all cases: cell-based
Gram-negative bacteria [1] = experiment: Sensitization to novobiocin, ester and amide side chain compounds (Table 14); conditions: strain not given
Procedure: (§1) Aliquots of 1 mL of the suspension were added to test tubes containing 1 mL TSB and incrementally varied concentrations of cholic acid derivatives and/or erythromycin or novobiocin. In the sensitization experiments, erythromycin or novobiocin were added 15 minutes later than the cholic acid derivatives. The samples were subjected to stationary incubation at 37° C. for 24 hours. Sample turbidity was determined by measuring absorption at 760 nm (HP 8453 UV-Visible Chemstation, Hewlett Packard). Additionally, an alliquot from each of the samples showing no measurable turbidity was subcultured on TSA plates (alliquots were diluted to provide fewer than 300 CFU). Colonies that grew on the subculture after overnight incubation were counted and the number of CFU/mL in the samples were calculated. The calculated values were compared to the number of CFU/mL in the original inoculum.
(§2) Ability to permeabilize outer membrane: Compounds 11, 106, and 108-114 (FIG. 1) were tested for antibiotic activity. They were also tested for the ability to permeabilize the outer membrane of Gram-negative bacteria, causing sensitization to hydrophobic antibiotics that cannot cross the outer membrane. The permeabilization of the outer membrane was measured using erythromycin and novobiocin.
(§3) Ester and amide side chains: Additional compounds, for example, compounds with amide and ester side chains, were tested.

Gram-negative bacteria [2] = experiment: MIC of ester and amide side chain compounds (Table 14); conditions: strain not given
Procedure: as §1, §3

Gram-negative bacteria [3] = experiment: Sensitization to erythromycin, ester and amide side chain compounds (Table 14); conditions: Table 14; strain not given
Procedure: as §1, §2, §3

| Compound | b: concentration of cholic acid derivatives required to lower MIC of novobiocin to 1 μg/ML (Gram-negative bacteria [1]) [mg/L] | MIC (Gram-negative bacteria [2]) [mg/L] | a: concentration of cholic acid derivatives required to lower MIC of erythromycin to 1 μg/ML (Gram-negative bacteria [3]) [mg/L] |
| --- | --- | --- | --- |
| C[C@H](CCCO)[C@H]1CC[C@H]2[C@@H]3[C@H](NC(=O)CN)C[C@@H]4C[C@H](NC(=O)CN)CC[C@]4(C)[C@H]3C[C@H](NC(=O)CN)[C@]12C [Compound 209a] | 75 | >100 | 25 |
| C[C@H](CCCO)[C@H]1CC[C@H]2[C@@H]3[C@H](NC(=O)CCN)C[C@@H]4C[C@H](NC(=O)CCN)CC[C@]4(C)[C@H]3C[C@H](NC(=O)CCN)[C@]12C [Compound 209b] | 75 | >100 | 40 |
| CC(CCCO)C1CCC2C3C(NC(=O)C(N)CCCCN)CC4CC(NC(=O)C(N)CCCCN)CCC4(C)C3CC(NC(=O)C(N)CCCCN)C12C (stereo not drawn) [Compound 209c] | 60 | 85 | 45 |
| C[C@H](CCCN(C)Cc1ccccc1)[C@H]1CC[C@H]2[C@@H]3[C@H](NC(=O)CN)C[C@@H]4C[C@H](NC(=O)CN)CC[C@]4(C)[C@H]3C[C@H](NC(=O)CN)[C@]12C [Compound 210a] | 18 | 80 | 6 |
| C[C@H](CCCN(C)Cc1ccccc1)[C@H]1CC[C@H]2[C@@H]3[C@H](NC(=O)CCN)C[C@@H]4C[C@H](NC(=O)CCN)CC[C@]4(C)[C@H]3C[C@H](NC(=O)CCN)[C@]12C [Compound 210b] | 40 | 100 | 15 |
